Laboratory results: article PMC8400920, “Metabolism of Diterpenoids Derived from the Bark of Cinnamomum cassia in Human Liver Microsomes” (Pharmaceutics, 2021)
Entries after “also recorded” stand apart in the source; their conditions may differ.

Tests used:
CYPs = test: Metabolism of AHC in HLMs with SKF-525A, a nonselective CYP inhibitor; assay type: in vitro ADME, human; conditions: 10 µM AHC, 1 mg/mL HLMs, NGS, 60 min, depending on SKF-525A concentration
Description: To investigate CYP-mediated metabolism, 10 µM AHC was mixed with 1 mg/mL pooled HLMs and 0.1 M potassium phosphate buffer (pH 7.4). Then, SKF-525A, a general inhibitor of CYPs, was added at concentrations of 0.5, 1, and 5 mM. The reactions were initiated with the addition of NGS at […] for 60 min. After 60 min, the reactions were terminated by adding 400 µL of 100% acetonitrile. The mixtures were then centrifuged at 15,700× g for 10 min. Subsequently, 550 µL of supernatant was dried in a vacuum concentrator. The residue was dissolved in 100 µL of 20% MeOH (0.1% formic acid), and 5 µL of this sample was injected into a C18 column for LC–MS/MS analysis.
To confirm the metabolism of AHC by CYP enzymes, AHC was incubated in HLMs with SKF-525A, i.e., a nonspecific CYP inhibitor (Figure S7). […] Consequently, as the metabolism of AHC was inhibited by SKF-525A treatment, the production of all metabolites was reduced in an SKF-525A concentration-dependent manner.

[1] = tested on: human liver microsomes (HLMs); test: Metabolic stability of seven diterpenoids in human liver microsomes; assay type: in vitro ADME; conditions: 10 µM, 0.5 mg/mL HLMs, 37 °C, 60 min
Description: For metabolism profiling, 10 µM of each of the seven compounds isolated from C. cassia bark was added to 0.5 mg/mL of pooled HLMs and 0.1 M potassium phosphate buffer (pH 7.4). The HLMs were then preincubated at 37 °C for 1 min. After adding NGS, the reaction mixture was incubated at 37 °C for 60 min. After the 60 min incubation period, 50 µL of the reaction mixture was transferred to a new tube, and 50 µL of 100% ACN containing 0.1% formic acid and tolbutamide (internal standard) was added to terminate the reaction. The mixture was then vortexed, followed by centrifugation at 15,700× g (13,000 rpm) for 10 min (Eppendorf AG, Hamburg, Germany). Finally, 90 µL of the supernatant was transferred to a vial and injected into a C18 column for LC–MS/MS analysis.
The metabolism screening of the seven compounds was performed using an HPLC system (Thermo Fisher Scientific, Bremen, Germany) equipped with an HPG-3200SD standard binary pump, a WPS-3000 TRS analytical autosampler, and a TCC-3000 SD column compartment. The HPLC system was coupled with an HR-MS (Q-Exactive Focus Quadrupole-Orbitrap MS; Thermo Fisher Scientific, Waltham, MA, USA) at the Mass Spectrometry Convergence Research Center. The full MS resolution and scan ranges were 70,000 and 60–900 m/z, respectively. The MS/MS resolution was 35,000. The mass spectra were obtained in negative ion electrospray mode. A heated electrospray ionization (HESI-II) probe was used as an ion generator, with nitrogen as the sheath gas at 35 aux units and auxiliary gas at 12 aux units. The mass spectrometer was operated in negative ionization mode. The other parameters were as follows: spray voltage, 3.5 kV; capillary temperature, 320 °C; S-lens radio frequency level, 50; and aux gas heater temperature, 400 °C.
The mobile phase consisted of 100% water with 0.1% formic acid (mobile phase A) and 100% ACN with 0.1% formic acid (mobile phase B). For metabolic stability, the gradient conditions were set as follows: 5% of B at 0.5–2.0 min, 5–50% of B at 2.0–4.5 min, 50% of B at 4.5–7.0 min, and 50–5% of B at 7.0–10.0 min at 40 °C with a flow rate of 0.2 mL/min. For metabolite identification, the gradient conditions were as follows: 10% of B at 0–5 min, 10–55% of B at 5–15 min, 55% of B at 15–23 min, and 55–10% of B at 23–30 min with a flow rate of 0.25 mL/min. Chromatographic separation was performed using a Kinetex C18 column (150 × 2.1 mm, 2.6 μm, XB-C18 100 Å, S/No: H19-070128; Phenomenex, Torrance, CA, USA). Data were analyzed using Xcalibur version 4.0 software (Thermo Fisher Scientific, Waltham, MA, USA).
To confirm their metabolic stability, seven diterpenoids (AHC, anhydrocinnzeylanol, cinncassiol A, cinncassiol B, cinnzeylanol, cinnzeylanone, and cinnzeylanine) derived from the bark of C. cassia were incubated with HLMs in the presence of the NGS for 60 min (Figure 1B). The metabolic stability of each compound was determined according to the ratio of the peak area at 60 min to that at 0 min. […] Therefore, we identified the metabolites of AHC produced in HLMs.

[2] = tested on: human liver microsomes (HLMs); test: Identification of phase I metabolites of AHC in HLMs; assay type: in vitro ADME; conditions: 10 µM AHC, 1 mg/mL pooled HLMs, with NGS, 60 min
Description: To identify AHC metabolites, 10 µM AHC was incubated with 1 mg/mL pooled HLMs in 0.1 M potassium phosphate buffer (pH 7.4) at 37 °C for 60 min. The reactions were initiated by adding NGS to obtain a final incubation volume of 200 µL. All experiments were conducted in triplicate. The reaction was terminated by adding 400 µL of 100% ACN, and the mixture was vortexed and then centrifuged for 10 min at 15,700× g. Next, the supernatant (550 µL) was transferred to a new tube and dried using a speed-vac concentrator with a cold trap (Labconco, Kansas, MO, USA). Subsequently, the dried samples were reconstituted in 100 µL of 20% MeOH containing 0.1% formic acid before centrifugation at 15,700× g for 10 min. Finally, the mixture was injected into a liquid chromatograph with a tandem mass spectrometer for analysis. […]
The mobile phase consisted of 100% water with 0.1% formic acid (mobile phase A) and 100% ACN with 0.1% formic acid (mobile phase B). […] Data were analyzed using Xcalibur version 4.0 software (Thermo Fisher Scientific, Waltham, MA, USA).
To identify the phase I metabolites of AHC in HLMs, 10 µM AHC was incubated in pooled HLMs without or with the NGS for 60 min. […] The extracted ion chromatograms of the generated AHC metabolites are shown in Figure 2A,B. AHC was detected as a deprotonated ion, [M − H]^−, at m/z 407 and 15.6 min in the negative ion mode. […]

## CC(=O)O[C@@H]1[C@@H](C)CC[C@]2(O)[C@]3(C)CC(=O)O[C@]12[C@@]1(O)C(C)=C(C(C)C)C[C@@]31O [AHC, anhydrocinnzeylanine]
CYPs
  residual amount of AHC after reaction with SKF-525A: significantly increased
[1]; NGS
  metabolic stability in HLMs (in words): most rapid metabolization; also recorded: unique reduction in metabolic stability; also recorded: highest metabolic rate
[1]; β-NADPH
  parent remaining after metabolism in HLMs (metabolized to): 3%
[2]
  number of metabolites produced in HLMs: 20
